Measured values as given in ChEMBL document CHEMBL1201861, “Genomics of Drug Sensitity in Cancer screening data, Wellcome Trust Sanger Institute”.
pIC50: −log10 of the molar value.

Experiments:
Assay in all cases: cells
[1] = test system: HuP-T4; assay type: functional, cell-based, Homo sapiens; settings: Homo sapiens, HuP-T4;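 note: cell viability assay measuring how much HuP-T4 cell growth is inhibited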
Description: SANGER: Inhibition of human HuP-T4 cell growth in a cell viability assay.

[2] = test system: IA-LM; assay type: functional, cell-based, Homo sapiens; settings: Homo sapiens, IA-LM;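 note: cell viability assay measuring growth inhibition of human IA-LM cells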
Description: SANGER: Inhibition of human IA-LM cell growth in a cell viability assay.

[3] = test system: KU812 cell line; assay type: functional, cell-based; settings: Homo sapiens;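 note: growth inhibition of KU812 cells, read out with a cell viability assay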
Description: SANGER: Inhibition of human KU812 cell growth in a cell viability assay.

[4] = test system: IST-SL1; assay type: functional, cell-based, Homo sapiens; settings: Homo sapiens, IST-SL1;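 note: growth inhibition of human IST-SL1 cells, read out with a cell viability assay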
Description: SANGER: Inhibition of human IST-SL1 cell growth in a cell viability assay.

[5] = test system: G-402; assay type: functional, cell-based, Homo sapiens; settings: Homo sapiens, G-402
Description: SANGER: Inhibition of human G-402 cell growth in a cell viability assay.

[6] = test system: CTV-1; assay type: functional, cell-based; settings: Homo sapiens;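 note: growth inhibition of the cell line, read out with a cell viability assay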
Description: SANGER: Inhibition of human CTV-1 cell growth in a cell viability assay.

[7] = test system: A-431; assay type: functional, cell-based, Homo sapiens; settings: Homo sapiens, A-431;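 note: growth inhibition of A-431 cells, determined with a cell viability read-out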
Description: SANGER: Inhibition of human A431 cell growth in a cell viability assay.

[8] = test system: H4; assay type: functional, cell-based; settings: Homo sapiens
Description: SANGER: Inhibition of human H4 cell growth in a cell viability assay.

[9] = test system: 697; assay type: functional, cell-based; settings: Homo sapiens
Description: SANGER: Inhibition of human 697 cell growth in a cell viability assay.

[10] = test system: GCT; assay type: functional, cell-based, Homo sapiens; settings: Homo sapiens, GCT;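 note: GCT cell line proliferation inhibition, read out with a cell viability assay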
Description: SANGER: Inhibition of human GCT cell growth in a cell viability assay.

[11] = test system: CAL-85-1; assay type: functional, cell-based; settings: Homo sapiens;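 note: growth inhibition of human CAL-85-1 cells, read out with a cell viability assay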
Description: SANGER: Inhibition of human CAL-85-1 cell growth in a cell viability assay.

[12] = test system: NTERA-2-cl-D1; assay type: functional, cell-based, Homo sapiens; settings: Homo sapiens, NTERA-2-cl-D1;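 note: inhibition of cell growth, measured with a cell viability assay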
Description: SANGER: Inhibition of human NTERA-S-cl-D1 cell growth in a cell viability assay.

[13] = test system: A204; assay type: functional, cell-based, Homo sapiens; settings: Homo sapiens, A204;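 note: growth inhibition of human A204 cells, read out with a cell viability assay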
Description: SANGER: Inhibition of human A204 cell growth in a cell viability assay.

[14] = test system: KM-H2; assay type: functional, cell-based; settings: Homo sapiens;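 note: growth inhibition of KM-H2 cells, read out by a cell viability assay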
Description: SANGER: Inhibition of human KM-H2 cell growth in a cell viability assay.

[15] = test system: SK-NEP-1; assay type: functional, cell-based; settings: Homo sapiens;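 note: growth inhibition of human SK-NEP-1 cells, read out by a cell viability assay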
Description: SANGER: Inhibition of human SK-NEP-1 cell growth in a cell viability assay.

[16] = test system: HAL-01; assay type: functional, cell-based; settings: Homo sapiens;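 note: growth inhibition of human HAL-01 cells, read out with a cell viability assay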
Description: SANGER: Inhibition of human HAL-01 cell growth in a cell viability assay.

[17] = test system: LS-411N; assay type: functional, cell-based, Homo sapiens; settings: Homo sapiens, LS-411N
[18] = test system: OVCAR-4; assay type: functional, cell-based, Homo sapiens; settings: Homo sapiens, OVCAR-4;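 note: growth inhibition of human OVCAR-4 cells, measured with a cell viability assay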
Description: SANGER: Inhibition of human OVCAR-4 cell growth in a cell viability assay.

[19] = test system: OCI-AML2; assay type: functional, cell-based; settings: Homo sapiens;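 note: growth inhibition of OCI-AML2 cells, read out with a cell viability assay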
Description: SANGER: Inhibition of human OCI-AML2 cell growth in a cell viability assay.

[20] = test system: SK-OV-3; assay type: functional, cell-based, Homo sapiens; settings: Homo sapiens, SK-OV-3;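 note: growth inhibition of SK-OV-3 human cells, read out with a cell viability assay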
Description: SANGER: Inhibition of human SK-OV-3 cell growth in a cell viability assay.

[21] = test system: BEN; assay type: functional, cell-based, Homo sapiens; settings: Homo sapiens, BEN;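 note: growth inhibition of the BEN cell line, read out with a cell viability assay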
Description: SANGER: Inhibition of human BEN cell growth in a cell viability assay.

[22] = test system: KOSC-2; assay type: functional, cell-based, Homo sapiens; settings: Homo sapiens, KOSC-2;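 note: growth inhibition of KOSC-2 cells, read out by a cell viability assay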
Description: SANGER: Inhibition of human KOSC-2 cell growth in a cell viability assay.

[23] = test system: DK-MG; assay type: functional, cell-based, Homo sapiens; settings: Homo sapiens, DK-MG;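 note: growth inhibition of DK-MG cells, read out with a cell viability assay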
Description: SANGER: Inhibition of human DK-MG cell growth in a cell viability assay.

[24] = test system: KM12; assay type: functional, cell-based, Homo sapiens; settings: Homo sapiens, KM12;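 note: KM12 cell growth inhibition, read out with a cell viability assay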
Description: SANGER: Inhibition of human KM12 cell growth in a cell viability assay.

[25] = test system: CAMA-1; assay type: functional, cell-based, Homo sapiens; settings: Homo sapiens, CAMA-1;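 note: growth inhibition of CAMA-1 cells, read out with a cell viability assay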
Description: SANGER: Inhibition of human CAMA-1 cell growth in a cell viability assay.

[26] = test system: MEL-HO; assay type: functional, cell-based, Homo sapiens; settings: Homo sapiens, MEL-HO
Description: SANGER: Inhibition of human MEL-HO cell growth in a cell viability assay.

[27] = test system: UACC-257; assay type: functional, cell-based, Homo sapiens; settings: Homo sapiens, UACC-257
Description: SANGER: Inhibition of human UACC-257 cell growth in a cell viability assay.

[28] = test system: MC116; assay type: functional, cell-based; settings: Homo sapiens;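 note: growth inhibition of MC116 cells, read out with a cell viability assay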
Description: SANGER: Inhibition of human MC116 cell growth in a cell viability assay.

[29] = test system: RT-112; assay type: functional, cell-based, Homo sapiens; settings: Homo sapiens, RT-112
Description: SANGER: Inhibition of human RT-112 cell growth in a cell viability assay.

[30] = test system: A-375; assay type: functional, cell-based, Homo sapiens; settings: Homo sapiens, A-375;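 note: growth inhibition of A375 cells, read out with a cell viability assay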
Description: SANGER: Inhibition of human A375 cell growth in a cell viability assay.

[31] = test system: KS-1; assay type: functional, cell-based, Homo sapiens; settings: Homo sapiens, KS-1;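 note: growth inhibition of KS-1 cells, read out with a cell viability assay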
Description: SANGER: Inhibition of human KS-1 cell growth in a cell viability assay.

[32] = test system: HCC1395; assay type: functional, cell-based, Homo sapiens; settings: Homo sapiens, HCC1395;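 note: growth inhibition of HCC1395 cells, read out by a cell viability assay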
Description: SANGER: Inhibition of human HCC1395 cell growth in a cell viability assay.

[33] = test system: MFM-223; assay type: functional, cell-based, Homo sapiens; settings: Homo sapiens, MFM-223
Description: SANGER: Inhibition of human MFM-223 cell growth in a cell viability assay.

[34] = test system: RPMI-7951; assay type: functional, cell-based, Homo sapiens; settings: Homo sapiens, RPMI-7951
Description: SANGER: Inhibition of human RPMI-7951 cell growth in a cell viability assay.

[35] = test system: HCC1806; assay type: functional, cell-based, Homo sapiens; settings: Homo sapiens, HCC1806;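 note: growth inhibition of the cancer cell line, determined with a cell viability assay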
Description: SANGER: Inhibition of human HCC1806 cell growth in a cell viability assay.

[36] = test system: TE-10; assay type: functional, cell-based, Homo sapiens; settings: Homo sapiens, TE-10;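 note: growth inhibition of TE-10 cells, measured by a cell viability assay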
Description: SANGER: Inhibition of human TE-10 cell growth in a cell viability assay.

[37] = test system: KARPAS-299; assay type: functional, cell-based; settings: Homo sapiens
Description: SANGER: Inhibition of human KARPAS-299 cell growth in a cell viability assay.

[38] = test system: LAMA-84; assay type: functional, cell-based; settings: Homo sapiens;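 note: growth inhibition of LAMA-84 cells, read out with a cell viability assay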
Description: SANGER: Inhibition of human LAMA-84 cell growth in a cell viability assay.

[39] = test system: BE-13; assay type: functional, cell-based; settings: Homo sapiens;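 note: growth inhibition of human BE-13 cells, measured with a cell viability assay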
Description: SANGER: Inhibition of human BE-13 cell growth in a cell viability assay.

[40] = test system: NCI-H1581; assay type: functional, cell-based, Homo sapiens; settings: Homo sapiens, NCI-H1581;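 note: cell growth inhibition read out by a viability assay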
Description: SANGER: Inhibition of human NCI-H1581 cell growth in a cell viability assay.

[41] = test system: U-87 MG; assay type: functional, cell-based, U-87MG ATCC; settings: Homo sapiens;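 note: growth inhibition of the cells measured with a viability assay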
Description: SANGER: Inhibition of human U-87-MG cell growth in a cell viability assay.

[42] = test system: HuCCT-1; assay type: functional, cell-based, Homo sapiens, HuCCT1; settings: Homo sapiens, HuCCT-1;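 note: growth inhibition of HuCCT-1 cells, read out by a cell viability assay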
Description: SANGER: Inhibition of human HuCCT1 cell growth in a cell viability assay.

[43] = test system: NB7; assay type: functional, cell-based; settings: Homo sapiens;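 note: growth inhibition of NB7 cells, read out with a cell viability assay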
Description: SANGER: Inhibition of human NB7 cell growth in a cell viability assay.

[44] = test system: MG-63; assay type: functional, cell-based, Homo sapiens; settings: Homo sapiens, MG-63;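 note: growth inhibition of human MG-63 cells, read out with a cell viability assay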
Description: SANGER: Inhibition of human MG-63 cell growth in a cell viability assay.

[45] = test system: DOK; assay type: functional, cell-based, Homo sapiens; settings: Homo sapiens, DOK;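 note: cell viability assay read-out, values reflect inhibition of cell growth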
Description: SANGER: Inhibition of human DOK cell growth in a cell viability assay.

[46] = test system: NCI-H727; assay type: functional, cell-based, Homo sapiens; settings: Homo sapiens, NCI-H727;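 note: growth inhibition of human NCI-H727 cells, read out with a cell viability assay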
Description: SANGER: Inhibition of human NCI-H727 cell growth in a cell viability assay.

[47] = test system: JAR; assay type: functional, cell-based, Homo sapiens; settings: Homo sapiens, JAR;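 note: growth inhibition of human JAR cells determined with a cell viability assay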
Description: SANGER: Inhibition of human JAR cell growth in a cell viability assay.

[48] = test system: CAL-33; assay type: functional, cell-based, Homo sapiens; settings: Homo sapiens, CAL-33;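 note: growth inhibition of CAL-33 cells, read out with a cell viability assay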
Description: SANGER: Inhibition of human CAL-33 cell growth in a cell viability assay.

[49] = test system: BFTC-905; assay type: functional, cell-based, Homo sapiens; settings: Homo sapiens, BFTC-905
Description: SANGER: Inhibition of human BFTC-905 cell growth in a cell viability assay.

[50] = test system: HH; assay type: functional, cell-based; settings: Homo sapiens
Description: SANGER: Inhibition of human HH cell growth in a cell viability assay.

[51] = test system: UO-31; assay type: functional, cell-based; settings: Homo sapiens;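 note: cell viability assay measuring inhibition of cell growth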
Description: SANGER: Inhibition of human U031 cell growth in a cell viability assay.

[52] = test system: SW1783; assay type: functional, cell-based; settings: Homo sapiens;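 note: cell growth inhibition measured with a viability assay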
Description: SANGER: Inhibition of human SW1783 cell growth in a cell viability assay.

CC(=O)O[C@@H]1[C@@H](OC(C)=O)[C@@H](O)[C@H](Oc2c(-c3ccc(O)cc3)oc3cc(O)cc(O)c3c2=O)O[C@H]1C
pIC50 [1]: < 5.00 | pIC50 [2]: < 5.00 | pIC50 [3]: < 5.00 | pIC50 [4]: < 5.00 | pIC50 [5]: < 5.00 | pIC50 [6]: < 5.00 | pIC50 [7]: < 5.00 | pIC50 [8]: < 5.00 | pIC50 [9]: < 5.00 | pIC50 [10]: < 5.00 | pIC50 [11]: < 5.00 | pIC50 [12]: < 5.00 | pIC50 [13]: < 5.00 | pIC50 [14]: < 5.00 | pIC50 [15]: < 5.00 | pIC50 [16]: < 5.00 | pIC50 [17]: < 5.00 | pIC50 [18]: < 5.00 | pIC50 [19]: < 5.00 | pIC50 [20]: < 5.00 | pIC50 [21]: < 5.00 | pIC50 [22]: < 5.00 | pIC50 [23]: < 5.00 | pIC50 [24]: < 5.00 | pIC50 [25]: < 5.00 | pIC50 [26]: < 5.00 | pIC50 [27]: < 5.00 | pIC50 [28]: < 5.00 | pIC50 [29]: < 5.00 | pIC50 [30]: < 5.00 | pIC50 [31]: < 5.00 | pIC50 [32]: < 5.00 | pIC50 [33]: < 5.00 | pIC50 [34]: < 5.00 | pIC50 [35]: < 5.00 | pIC50 [36]: < 5.00 | pIC50 [37]: < 5.00 | pIC50 [38]: < 5.00 | pIC50 [39]: < 5.00 | pIC50 [40]: < 5.00 | pIC50 [41]: < 5.00 | pIC50 [42]: < 5.00 | pIC50 [43]: < 5.00 | pIC50 [44]: < 5.00 | pIC50 [45]: < 5.00 | pIC50 [46]: < 5.00 | pIC50 [47]: < 5.00 | pIC50 [48]: < 5.00 | pIC50 [49]: < 5.00 | pIC50 [50]: < 5.00 | pIC50 [51]: < 5.00 | pIC50 [52]: < 5.00

O=C(NOCC1CC1)c1ccc(F)c(F)c1Nc1ccc(I)cc1Cl [CI-1040]
pIC50 [1]: 5.93 | pIC50 [2]: < 5.00 | pIC50 [3]: 6.34 | pIC50 [4]: < 5.00 | pIC50 [5]: < 5.00 | pIC50 [6]: < 5.00 | pIC50 [7]: 5.20 | pIC50 [8]: 5.30 | pIC50 [9]: 5.43 | pIC50 [10]: < 5.00 | pIC50 [11]: < 5.00 | pIC50 [12]: < 5.00 | pIC50 [13]: < 5.00 | pIC50 [14]: < 5.00 | pIC50 [15]: < 5.00 | pIC50 [16]: < 5.00 | pIC50 [17]: 5.85 | pIC50 [18]: < 5.00 | pIC50 [19]: < 5.00 | pIC50 [20]: < 5.00 | pIC50 [21]: < 5.00 | pIC50 [22]: < 5.00 | pIC50 [23]: 5.04 | pIC50 [24]: 6.62 | pIC50 [25]: < 5.00 | pIC50 [26]: 6.56 | pIC50 [27]: 6.02 | pIC50 [28]: < 5.00 | pIC50 [29]: 5.80 | pIC50 [30]: 5.72 | pIC50 [31]: < 5.00 | pIC50 [32]: < 5.00 | pIC50 [33]: < 5.00 | pIC50 [34]: 5.37 | pIC50 [35]: < 5.00 | pIC50 [36]: < 5.00 | pIC50 [37]: < 5.00 | pIC50 [38]: 5.50 | pIC50 [39]: 5.13 | pIC50 [40]: 5.08 | pIC50 [41]: < 5.00 | pIC50 [42]: 5.15 | pIC50 [43]: 5.63 | pIC50 [44]: < 5.00 | pIC50 [45]: 5.63 | pIC50 [46]: 5.53 | pIC50 [47]: < 5.00 | pIC50 [48]: 5.29 | pIC50 [49]: 5.55 | pIC50 [50]: 5.35 | pIC50 [51]: < 5.00 | pIC50 [52]: < 5.00
